According to US9469615B2, “Quinoxalines and AZA-quinoxalines as CRTH2 receptor modulators” (Merck Sharp & Dohme Corp., priority 2010, dated 2016):

Target: T1, hCRTH2 (Homo sapiens, UniProt Q9Y5Y4)
T1 construct: expressed in transfected cells; host or cells: HEK (human embryonic kidney) cells expressing hCRTH2; membrane preparation
T1 sequence (Q9Y5Y4 1-395): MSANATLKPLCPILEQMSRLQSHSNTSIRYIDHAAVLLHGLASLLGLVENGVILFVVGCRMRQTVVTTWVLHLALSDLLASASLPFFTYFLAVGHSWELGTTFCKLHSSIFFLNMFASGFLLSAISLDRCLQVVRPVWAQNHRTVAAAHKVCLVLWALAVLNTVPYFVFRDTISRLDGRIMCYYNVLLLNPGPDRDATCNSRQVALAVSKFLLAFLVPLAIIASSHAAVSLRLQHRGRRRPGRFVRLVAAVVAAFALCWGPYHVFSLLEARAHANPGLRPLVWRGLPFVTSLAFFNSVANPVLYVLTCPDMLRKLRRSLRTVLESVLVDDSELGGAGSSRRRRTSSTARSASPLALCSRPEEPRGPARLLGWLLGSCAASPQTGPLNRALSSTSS
Assay: Radioligand binding assay ([3H]PGD2 competition, HEK-hCRTH2 membranes)
Method in brief: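 Membranes (8-20 μg protein) from HEK-hCRTH2 cells were incubated 60 min at room temperature with 3.0 nM [3H]PGD2 in 50 mM Tris-HCl pH 7.4, 1 mM EDTA, 2 mM MnCl2, 1% DMSO. Non-specific binding defined with 10 μM PGD2. Bound radioactivity counted after filtration.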

| Compound | Ki ([3H]PGD2 competition, Table B) [nM] | Ki ([3H]PGD2 binding, values in text) [nM] |
| --- | --- | --- |
| O=C(O)CCCCc1nc2cc(C(=O)N3CCN(Cc4ccncc4)CC3)ccc2nc1-c1ccc(Cl)cc1 [compound 682, 5-(3-(4-chlorophenyl)-7-(4-(pyridin-4-ylmethyl)piperazine-1-carbonyl)quinoxalin-2-yl)pentanoic acid] | 20.1 to 200 | – |
| O=C(O)CCCCc1nc2cc(C(=O)N3CCN(c4nnc(C5CC5)o4)CC3)ccc2nc1-c1ccc(Cl)cc1 [compound 685, 5-(3-(4-chlorophenyl)-7-(4-(5-cyclopropyl-1,3,4-oxadiazo1-2-yl)piperazine-1-carbonyl)quinoxalin-2-yl)pentanoic acid] | 20.1 to 200 | – |
| O=C(O)CCCCc1nc2cc(C(=O)N3C[C@@H]4C[C@H]3CN4Cc3ccccc3)ccc2nc1-c1ccc(Cl)cc1 [compound 686, 5-(7-((1S,4S)-5-benzyl-2,5-diazabicyclo[2.2.1]heptane-2-carbonyl)-3-(4-chlorophenyl)quinoxalin-2-yl)pentanoic acid] | 20.1 to 200 | – |
| O=C(O)CCCCc1nc2cc(C(=O)N[C@H](CO)c3ccc(F)cc3)ccc2nc1-c1ccccc1 [compound 688, (S)-5-(7-((1-(4-fluorophenyl)-2-hydroxyethyl)carbamoyl)-3-phenylquinoxalin-2-yl)pentanoic acid] | 20.1 to 200 | – |
| O=C(O)CCCCc1nc2cc(C(=O)N3C[C@H]4C[C@@H]3CN4C(=O)OCc3ccccc3)ccc2nc1-c1ccc(Cl)cc1 [compound 699, 5-(7-((1R,4R)-5-((benzyloxy)carbonyl)-2,5-diazabicyclo[2.2.1]heptane-2-carbonyl)-3-(4-chlorophenyl)quinoxalin-2-yl)pentanoic acid] | 2.1 to 20 | – |
| Cc1nc(N2CCN(C(=O)c3ccc4nc(-c5ccc(Cl)cc5)c(CCCCC(=O)O)nc4c3)CC2)cn1C [compound 700, 5-(3-(4-chlorophenyl)-7-(4-(1,2-dimethyl-1H-imidazol-4-yl)piperazine-1-carbonyl)quinoxalin-2-yl)pentanoic acid] | 20.1 to 200 | – |
| O=C(O)CCCCc1nc2cc(C(=O)N3[C@@H]4CC[C@H]3CN(Cc3ccccc3)C4)ccc2nc1-c1ccc(Cl)cc1 [compound 702] | 2.1 to 20 | – |
| Cc1cc(N2CCN(C(=O)c3ccc4nc(-c5ccc(Cl)cc5)c(CCCCC(=O)O)nc4c3)CC2)cc(C)n1 [compound 703, 5-(3-(4-chlorophenyl)-7-(4-(2,6-dimethylpyridin-4-yl)piperazine-1-carbonyl)quinoxalin-2-yl)pentanoic acid] | 201 to 700 | – |
| O=C(O)CCCCc1nc2cc(C(=O)N3C[C@H]4CC[C@@H](C3)N4Cc3ccccc3)ccc2nc1-c1ccc(Cl)cc1 [compound 704, 5-(7-((1R,5S)-8-benzyl-3,8-diazabicyclo[3.2.1]octane-3-carbonyl)-3-(4-chlorophenyl)quinoxalin-2-yl)pentanoic acid] | 2.1 to 20 | – |
| O=C(O)CCCCc1nc2cc(C(=O)N3CCn4ccnc4C3)ccc2nc1-c1ccc(Cl)cc1 [compound 705, 5-(3-(4-chlorophenyl)-7-(5,6,7,8-tetrahydroimidazo[1,2-a]pyrazine-7-carbonyl)quinoxalin-2-yl)pentanoic acid] | 201 to 700 | – |
| O=C(N[C@@H]1CCCc2ccccc21)c1ccc2nc(-c3ccccc3)c(CCCC(O)C(=O)O)nc2c1 (stereo partly drawn) [compound 706, 2-hydroxy-5-(3-phenyl-7-(((R)-1,2,3,4-tetrahydronaphthalen-1-yl)carbamoyl)quinoxalin-2-yl)pentanoic acid] | 201 to 700 | – |
| O=C(O)CCCCc1nc2cc(C(=O)N[C@H]3CC(=O)Nc4ccccc43)ccc2nc1-c1ccccc1 [compound 710, (S)-5-(7-((2-oxo-1,2,3,4-tetrahydroquinolin-4-yl)carbamoyl)-3-phenylquinoxalin-2-yl)pentanoic acid] | 20.1 to 200 | – |
| O=C(O)CCCCc1nc2cc(C(=O)N[C@@H]3CC(=O)Nc4ccccc43)ccc2nc1-c1ccccc1 [compound 711, (R)-5-(7-((2-oxo-1,2,3,4-tetrahydroquinolin-4-yl)carbamoyl)-3-phenylquinoxalin-2-yl)pentanoic acid] | 2.1 to 20 | – |

More lines, now with the values ahead:

| Ki ([3H]PGD2 competition, Table B) [nM] | Ki ([3H]PGD2 binding, values in text) [nM] | Compound |
| --- | --- | --- |
| 2.1 to 20 | – | Cc1cnc(C)c(N2CCN(C(=O)c3ccc4nc(-c5ccc(Cl)cc5)c(CCCCC(=O)O)nc4c3)CC2)n1 [compound 681, 5-(3-(4-chlorophenyl)-7-(4-(3,6-dimethylpyrazin-2-yl)piperazine-1-carbonyl)quinoxalin-2-yl)pentanoic acid] |
| 2.1 to 20 | – | Cc1cnccc1N1CCN(C(=O)c2ccc3nc(-c4ccc(Cl)cc4)c(CCCCC(=O)O)nc3c2)CC1 [compound 683, 5-(3-(4-chlorophenyl)-7-(4-(3-methylpyridin-4-yl)piperazine-1-carbonyl)quinoxalin-2-yl)pentanoic acid] |
| 2.1 to 20 | – | Cc1cc(N2CCN(C(=O)c3ccc4nc(-c5ccc(Cl)cc5)c(CCCCC(=O)O)nc4c3)CC2)sn1 [compound 684, 5-(3-(4-chlorophenyl)-7-(4-(3-methylisothiazol-5-yl)piperazine-1-carbonyl)quinoxalin-2-yl)pentanoic acid] |
| 2.1 to 20 | – | O=C(O)CCCCc1nc2cc(C(=O)N[C@H](CO)c3ccc(F)cc3)ccc2nc1-c1ccc(Cl)cc1 [compound 687, (S)-5-(3-(4-chlorophenyl)-7-((1-(4-fluorophenyl)-2-hydroxyethyl)carbamoyl)quinoxalin-2-yl) pentanoic acid] |
| 2.1 to 20 | – | O=C(O)CCCCc1nc2cc(C(=O)N3CCC(O)(c4ccccc4)C3)ccc2nc1-c1ccc(Cl)cc1 (stereo not shown) [compound 689, 5-(3-(4-chlorophenyl)-7-(3-hydroxy-3-phenylpyrrolidine-1-carbonyl)quinoxalin-2-yl)pentanoic acid] |
| 2.1 to 20 | – | O=C(O)CCCCc1nc2cc(C(=O)N3CC4CC4(c4ccccc4)C3)ccc2nc1-c1ccc(Cl)cc1 (stereo not shown) [compound 690, 5-(3-(4-chlorophenyl)-7-(1-phenyl-3-azabicyclo[3.1.0]hexane-3-carbonyl)quinoxalin-2-yl)pentanoic acid] |
| 2.1 to 20 | – | O=C(O)CCCCc1nc2cc(C(=O)NC3CC(=O)Nc4ccccc43)ccc2nc1-c1ccc(Cl)cc1 (stereo not shown) [compound 691, 5-(3-(4-chlorophenyl)-7-((2-oxo-1,2,3,4-tetrahydroquinolin-4-yl)carbamoyl)quinoxalin-2-yl)pentanoic acid] |
| 2.1 to 20 | – | O=C(O)CCCCc1nc2cc(C(=O)N[C@H]3CCOc4cc(C(F)(F)F)ccc43)ccc2nc1-c1ccc(Cl)cc1 [compound 692, (S)-5-(3-(4-chlorophenyl)-7-((7-(trifluoromethyl)chroman-4-yl)carbamoyl)quinoxalin-2-yl)pentanoic acid] |
| 2.1 to 20 | – | CC(C)(NC(=O)c1ccc2nc(-c3ccc(Cl)cc3)c(CCCCC(=O)O)nc2c1)c1ccc(F)cc1 [compound 693, 5-(3-(4-chlorophenyl)-7-((2-(4-fluorophenyl)propan-2-yl)carbamoyl)quinoxalin-2-yl)pentanoic acid] |
| 2.1 to 20 | – | O=C(O)CCCCc1nc2cc(C(=O)NC3CCOc4c(F)cc(F)cc43)ccc2nc1-c1ccc(Cl)cc1 (stereo not shown) [compound 694, 5-(3-(4-chlorophenyl)-7-((6,8-difluorochroman-4-yl)carbamoyl)quinoxalin-2-yl)pentanoic acid] |
| 2.1 to 20 | – | CN1C(=O)c2ccccc2C12CCN(C(=O)c1ccc3nc(-c4ccc(Cl)cc4)c(CCCCC(=O)O)nc3c1)CC2 [compound 695, 5-(3-(4-chlorophenyl)-7-(2-methyl-3-oxospiro[isoindoline-1,4′-piperidin]-1′-ylcarbonyl)quinoxalin-2-yl)pentanoic acid] |
| 2.1 to 20 | – | CC1(C)Oc2ccccc2C(NC(=O)c2ccc3nc(-c4ccc(Cl)cc4)c(CCCCC(=O)O)nc3c2)C1O (stereo not shown) [compound 696, 5-(3-(4-chlorophenyl)-7-((3-hydroxy-2,2-dimethylchroman-4-yl)carbamoyl)quinoxalin-2-yl)pentanoic acid] |
| 2.1 to 20 | – | CS(=O)(=O)c1ccccc1N1CCN(C(=O)c2ccc3nc(-c4ccc(Cl)cc4)c(CCCCC(=O)O)nc3c2)CC1 [compound 697, 5-(3-(4-chlorophenyl)-7-(4-(2-(methylsulfonyl)phenyl)piperazine-1-carbonyl)quinoxalin-2-yl)pentanoic acid] |
| 2.1 to 20 | – | O=C(O)CCCCc1nc2cc(C(=O)N3C[C@H]4CC[C@@H]3CN4Cc3ccccc3)ccc2nc1-c1ccc(Cl)cc1 [compound 698, 5-(7-((1R,4R)-5-benzyl-2,5-diazabicyc1o[2.2.2]octane-2-carbonyl)-3-(4-chlorophenyl)quinoxalin-2-yl)pentanoic acid] |
| 2.1 to 20 | – | O=C(O)CCCCc1nc2cc(C(=O)N3CCN(c4nc5ccccc5o4)CC3)ccc2nc1-c1ccc(Cl)cc1 [compound 701, 5-(7-(4-(benzo[d]oxazol-2-yl)piperazine-1-carbonyl)-3-(4-chlorophenyl)quinoxalin-2-yl)pentanoic acid] |
| 2.1 to 20 | – | CC1(C)CCC(NC(=O)c2ccc3nc(-c4ccccc4)c(CCCCC(=O)O)nc3c2)c2ccccc21 (stereo not shown) [compound 707, 5-(7-((4,4-dimethyl-1,2,3,4-tetrahydronaphthalen-1-yl)carbamoyl)-3-phenylquinoxalin-2-yl)pentatioic acid] |
| 2.1 to 20 | 18.4 | O=C(O)CCCCc1nc2cc(C(=O)N[C@H]3CCS(=O)(=O)c4ccccc43)ccc2nc1-c1ccc(F)cc1 [compound 709, (S)-5-(7-((1,1-dioxidothiochroman-4-yl)carbamoyl)-3-(4-fluorophenyl)quinoxalin-2-yl)pentanoic acid] |
